System: ovariectomized pregnant rats
Experiment: pregnancy maintenance test in rats
Assay type: in vivo
Details: subcutaneous once daily from day 8 of pregnancy, with estrone 5 μg/kg/day
Text: Executing the Pregnancy Maintenance Test in Rats:
In pregnant rats, removal of the corpora lutea or castration induces abortion. By exogenous supplying of progestins (gestagens) in combination with a suitable dose of estrogen, pregnancy can be maintained. The pregnancy maintenance test in ovariectomized rats serves to determine peripheral gestagenic activity of a compound.
Rats are paired up during the proestrus overnight. Mating is monitored on the morning of the following day by vaginal smear inspection. The presence of sperm is considered in this case as day 1 of the beginning of pregnancy. On day 8 of pregnancy, the animals are ovariectomized under ether anesthesia. […]
At the end of the test (day 15 or day 21), the animals are sacrificed under CO2 atmosphere, and live fetuses (fetuses with beating hearts) and implantation sites (early resorptions and dead fetuses including autolysis and atrophic placentas) in both uterine horns are counted. […] In uteri without fetuses or implantation sites, the number of nidation sites is determined by staining with 10% ammonium sulfide solution. The pregnancy maintenance rate is calculated as the quotient of the number of living fetuses and the total number of nidation sites (both resorbed and dead fetuses as well as nidation sites). […]

Row | Structure (SMILES) | pregnancy-maintaining dose (ED50)
1 | CCC12CCC3C4CCC(=O)C=C4C4CC4C3C1C1CC1C21CCC(=O)O1 (stereo not drawn) [compound 3a, 18-Methyl-6α,7α-15β,16β-dimethylene-3-oxo-19-nor-17-pregn-4-ene-21,17-carbolactone] | 120 µg/kg/day
2 | C[C@]12CCC(=O)C=C1[C@@H]1C[C@@H]1[C@H]1[C@@H]3[C@@H]4C[C@@H]4[C@@]4(CCC(=O)O4)[C@@]3(C)CC[C@@H]12 [drospirenone, 6β,7β-15β,16β-dimethylene-3-oxo-17-pregn-4-ene-21,17β-carbolactone] | 3500 µg/kg/day
